Experimental data published in patent publication US9480679B2, “Methods for treating malaria, tuberculosis and MAC diseases” (priority 2009, dated 2016).
In brackets after ≈: the same amount, converted by molar mass. Several values for one entry are separate records, joined by “and”; a condition that tells them apart may be missing. Equal values may be shown once. Read-outs that look alike come from different tables or passages of the source.

Experiments:
P. falciparum NF54 [1] = assay: In vitro P. falciparum 72 hour assay (48+24); type: cell-based; conditions: Plasmodium falciparum
Protocol: EXAMPLE. In vitro and in vivo activity against different species of Plasmodium parasites. CEM-101 was tested against intra-erythrocytic forms of P. falciparum derived from asynchronous cultures of the strain […]. […] CEM-101 was followed for 120 h. CEM-101 has delayed activity when compared to other agents.
In vitro P. falciparum data for CEM-101 in the 72 h Assay (48+24)

P. falciparum NF54 [2] = assay: In vitro P. falciparum 120 hour assay (96+24); type: cell-based; conditions: Plasmodium falciparum
Protocol: EXAMPLE. In vitro and in vivo activity against different species of Plasmodium parasites. CEM-101 was tested against intra-erythrocytic forms of P. falciparum derived from asynchronous cultures of the strain […]. Parasite growth over 120 h was measured by the incorporation of radiolabelled [^3H]hypoxanthine (in hypoxanthine free culture medium) added after 96 h of drug incubation and 24 h prior to the termination of the test. CEM-101 was followed for 120 h. CEM-101 has delayed activity when compared to other agents.
In vitro P. falciparum data for CEM-101 in the 120 h Assay (96+24)

[3] = system: replicating M. tuberculosis; assay: Aero RLU (Relative Light Units under aerobic conditions), replicating culture; type: cell-based; conditions: two experiments
M. avium complex = assay: Broth dilution MIC versus M. avium complex isolates; type: cell-based, Mycobacterium avium
M. tuberculosis = conditions: reported in vitro activity; cited from earlier work
[4] = system: replicating M. tuberculosis; assay: Microplate Alamar Blue Assay (MABA), replicating culture; type: cell-based; conditions: two experiments
[5] = system: replicating M. tuberculosis; conditions: reported values; cited from earlier work
M. avium LPR ATCC 49601 = assay: Murine model of M. avium infection, CFU in spleens and lungs; type: in vivo; conditions: mice, 200 mg/kg orally 5 days/week for 4 weeks; P<0.05
M. avium = conditions: Bermudez 2001; cited from earlier work

`C[C@H]1[C@H](OC(=O)CCC(=O)O)O[C@@H]2O[C@@]3(C)CC[C@H]4[C@H](C)CC[C@@H]1[C@@]24OO3` [Artesunate] gave an IC50 (P. falciparum NF54 [1]; NF54, 72 h, read-out: IC50 NF54 TEST 1) of 0.003 µg/mL (≈ 0.0078 µM), an IC50 (P. falciparum NF54 [1]; NF54, 72 h, read-out: IC50 NF54 TEST 2) of 0.0032 µg/mL (≈ 0.00832 µM) and an IC50 (P. falciparum NF54 [1]; NF54, 72 h, read-out: IC50 NF54 TEST 3) of 0.003 µg/mL (≈ 0.0078 µM). The IC50 (P. falciparum NF54 [1]; NF54, 72 h, read-out: IC50 NF54 TEST 4) was 0.0028 µg/mL (≈ 0.00728 µM), the IC50 (P. falciparum NF54 [1]; NF54, 72 h, read-out: IC50 NF54 Test 1) was 0.003 µg/mL (≈ 0.0078 µM) and the IC50 (P. falciparum NF54 [1]; NF54, 72 h, read-out: IC50 NF54 Test 2) was 0.0032 µg/mL (≈ 0.00832 µM). For the same compound, the IC50 (P. falciparum NF54 [1]; NF54, 72 h, read-out: IC50 NF54 Test 3) was 0.003 µg/mL (≈ 0.0078 µM), the IC50 (P. falciparum NF54 [1]; NF54, 72 h, read-out: IC50 NF54 Test 4) was 0.0028 µg/mL (≈ 0.00728 µM) and the IC50 (P. falciparum NF54 [2]; NF54, 120 h, read-out: IC50 NF54) was 0.0033 µg/mL (≈ 0.00858 µM). It also gave an IC50 (P. falciparum NF54 [2]; NF54, 120 h, read-out: IC50 NF54 Test 1) of 0.0042 µg/mL (≈ 0.0109 µM), an IC50 (P. falciparum NF54 [2]; NF54, 120 h, read-out: IC50 NF54 Test 2) of 0.0039 µg/mL (≈ 0.0101 µM) and an IC50 (P. falciparum NF54 [2]; NF54, 120 h, read-out: IC50 NF54 Test 3) of 0.0033 µg/mL (≈ 0.00858 µM).

Compound `CCN(CC)CCCC(C)Nc1ccnc2cc(Cl)ccc12` (stereo not shown) [Chloroquine] has an IC50 (P. falciparum NF54 [1]; NF54, 72 h assay (48+24), read-out: IC50 NF54 TEST 1) of 0.0044 µg/mL (≈ 0.0138 µM), an IC50 (P. falciparum NF54 [1]; NF54, 72 h assay (48+24), read-out: IC50 NF54 TEST 2) of 0.0054 µg/mL (≈ 0.0169 µM) and an IC50 (P. falciparum NF54 [1]; NF54, 72 h assay (48+24), read-out: IC50 NF54 TEST 3) of 0.0044 µg/mL (≈ 0.0138 µM). The IC50 (P. falciparum NF54 [1]; NF54, 72 h assay (48+24), read-out: IC50 NF54 TEST 4) was 0.0048 µg/mL (≈ 0.015 µM), the IC50 (P. falciparum NF54 [1]; NF54, 72 hour assay (48+24), read-out: IC50 NF54 Test 1) was 0.0044 µg/mL (≈ 0.0138 µM) and the IC50 (P. falciparum NF54 [1]; NF54, 72 hour assay (48+24), read-out: IC50 NF54 Test 2) was 0.0054 µg/mL (≈ 0.0169 µM). For the same compound, the IC50 (P. falciparum NF54 [1]; NF54, 72 hour assay (48+24), read-out: IC50 NF54 Test 3) was 0.0044 µg/mL (≈ 0.0138 µM), the IC50 (P. falciparum NF54 [1]; NF54, 72 hour assay (48+24), read-out: IC50 NF54 Test 4) was 0.0048 µg/mL (≈ 0.015 µM) and the IC50 (P. falciparum NF54 [2]; NF54, 120 h assay (96+24), read-out: IC50 NF54) was 0.0047 µg/mL (≈ 0.0147 µM). It also gave an IC50 (P. falciparum NF54 [2]; NF54, 120 hour assay (96+24), read-out: IC50 NF54 Test 1) of 0.0046 µg/mL (≈ 0.0144 µM), an IC50 (P. falciparum NF54 [2]; NF54, 120 hour assay (96+24), read-out: IC50 NF54 Test 2) of 0.0046 µg/mL (≈ 0.0144 µM) and an IC50 (P. falciparum NF54 [2]; NF54, 120 hour assay (96+24), read-out: IC50 NF54 Test 3) of 0.0047 µg/mL (≈ 0.0147 µM).

In the case of `CC[C@H]1OC(=O)[C@H](C)[C@@H](O[C@H]2C[C@@](C)(OC)[C@@H](O)[C@H](C)O2)[C@H](C)[C@@H](O[C@@H]2O[C@H](C)C[C@H](N(C)C)[C@H]2O)[C@](C)(OC)C[C@@H](C)C(=O)[C@H](C)[C@@H](O)[C@]1(C)O` [Clarithromycin, reference compound], the “Aero RLU” value [3] is reported as 22.46 µM and 18.82 µM, the MIC (M. avium complex; Mycobacterium avium) is reported as 128 µg/mL (≈ 171 µM) and the MIC (M. avium complex; Mycobacterium avium, isolate MAC 101, clarithromycin susceptible, read-out: MIC) is reported as 0.125 µg/mL (≈ 0.167 µM). For the same compound, the MIC (M. avium complex; Mycobacterium avium, isolate MAC 103, clarithromycin resistant, read-out: MIC) was 64 µg/mL (≈ 85.6 µM), the MIC (M. avium complex; Mycobacterium avium, isolate MAC 108, clarithromycin resistant, read-out: MIC) was 64 µg/mL (≈ 85.6 µM) and the MIC (M. avium complex; Mycobacterium avium, isolate MAC 110, clarithromycin resistant, read-out: MIC) was 64 µg/mL (≈ 85.6 µM). For the same compound, the MIC (M. avium complex; Mycobacterium avium, isolate MAC 216, clarithromycin resistant, read-out: MIC) was 32 µg/mL (≈ 42.8 µM), the MIC (M. avium complex; Mycobacterium avium, isolate MAC 309, clarithromycin resistant, read-out: MIC) was 64 µg/mL (≈ 85.6 µM) and the MIC (M. avium complex; Mycobacterium avium, isolate MAC 320, clarithromycin resistant, read-out: MIC) was 64 µg/mL (≈ 85.6 µM). The MIC (M. avium complex; Mycobacterium avium, isolate MAC 623, clarithromycin resistant, read-out: MIC) was 64 µg/mL (≈ 85.6 µM), the MIC (M. avium complex; Mycobacterium avium, isolate MAC 625, clarithromycin resistant, read-out: MIC) was 64 µg/mL (≈ 85.6 µM) and the MIC (M. avium complex; Mycobacterium avium, isolate MAC 643, clarithromycin resistant, read-out: MIC) was 64 µg/mL (≈ 85.6 µM). The MIC (M. avium complex; Mycobacterium avium, isolate MAC 1408, clarithromycin susceptible, read-out: MIC) was 0.25 µg/mL (≈ 0.334 µM), the MIC (M. avium complex; Mycobacterium avium, isolate MAC 3404.4, clarithromycin susceptible, read-out: MIC) was 0.125 µg/mL (≈ 0.167 µM) and the MIC (M. avium complex; Mycobacterium avium, isolate MAC 9141, clarithromycin susceptible, read-out: MIC) was 0.25 µg/mL (≈ 0.334 µM). It also gave an MIC (M. avium complex; Mycobacterium avium, isolate MAC FAR, clarithromycin susceptible, read-out: MIC) of 0.125 µg/mL (≈ 0.167 µM), an MIC (M. avium complex; Mycobacterium avium, isolate MAC GRL, clarithromycin susceptible, read-out: MIC) of 2 µg/mL (≈ 2.67 µM) and an MIC (M. avium complex; Mycobacterium avium, isolate MAC KAL, clarithromycin susceptible, read-out: MIC) of 8 µg/mL (≈ 10.7 µM). The MIC (M. avium complex; Mycobacterium avium, isolate MAC KZL, clarithromycin susceptible, read-out: MIC) was 1 µg/mL (≈ 1.34 µM), the MIC (M. avium complex; Mycobacterium avium, isolate MAC Pry, clarithromycin resistant, read-out: MIC) was 64 µg/mL (≈ 85.6 µM) and the MIC (M. avium complex; Mycobacterium avium, isolate MAC SMT, clarithromycin susceptible, read-out: MIC) was 0.25 µg/mL (≈ 0.334 µM). For the same compound, the MIC (M. avium complex; Mycobacterium avium, isolate MAC TEL, clarithromycin susceptible, read-out: MIC) was 2 µg/mL (≈ 2.67 µM), the MIC (M. avium complex; Mycobacterium avium, isolate MAC TRY, clarithromycin susceptible, read-out: MIC) was 0.5 µg/mL (≈ 0.668 µM) and the MIC (M. avium complex; isolate MAC 224, clarithromycin resistant) was 128 µg/mL (≈ 171 µM). The MIC (M. tuberculosis) was 8 µg/mL (≈ 10.7 µM), the MIC ([4]; Mycobacterium tuberculosis) was 14.5 µM (≈ 10.9 µg/mL) and the MIC [4] was 13.34 µM (≈ 9.98 µg/mL). For the same compound, the “MABA MIC” value [5] was 8 µg/mL and the “reduction in growth of MAC LPR in the spleens and lungs compared to the late controls” value (M. avium LPR ATCC 49601) was “significant”.

For `CC[C@H]1OC(=O)[C@H](C)C(=O)[C@H](C)[C@@H](O[C@@H]2O[C@H](C)C[C@H](N(C)C)[C@H]2O)[C@](C)(OC)C[C@@H](C)C(=O)[C@H](C)[C@H]2N(CCCCn3cnc(-c4cccnc4)c3)C(=O)O[C@]12C` [telithromycin], the “MABA MIC” value [5] is listed as 128 µg/mL and the “bactericidal activity against M. avium” value (M. avium) is listed as “lack of significant bactericidal activity”.
